Converted amounts (≈) assume the structure as drawn. Structures can show the parent of a compound that is named as a salt.
Key:
[1] = system: human keratinocyte cell line (HaCaT); test: Cytotoxic activity, antiproliferative SRB assay, non-cancerous HaCaT; format: cell-based; settings: mean ± SEM, n = 3
Protocol: (§1) Hepatocellular carcinoma (HepG2; ATTC No. HB-8065) was cultured in Minimum Essential Media (MEM) supplemented with 10% heated-inactivated fetal bovine serum (FBS) and 1% penicillin–streptomycin (P/S). Cholangiocarcinoma cell line (KKU-M156) was cultured in HAM's F12 supplemented with 10% FBS, 1% P/S, and 12.5 mM HEPES. In addition, one non-cancerous human keratinocyte cell line (HaCaT; No. 300493-SF) was cultured in Dulbecco's Modified Eagle Medium (DMEM) supplemented with 10% FBS and 1% P/S [13].
(§2) This assay followed the previously described protocol. The various concentrations (1, 10, 50, and 100 µg/mL) of the crude extracts were investigated against two human cancer cell lines and one non-cancerous cell line. The cell lines were washed with PBS and the cells were detached with 0.025% trypsin–EDTA to make a single cell suspension. A 5 mL medium was then added to the flask to stop the trypsin–EDTA activity. The viable cells were counted by trypan blue exclusion in a haemocytometer. A single-cell suspensions density of HepG2, KKU-M156, and HaCaT were diluted with each medium to give optimal densities of 2 × 10^3, 3 × 10^3, and 8 × 10^3 cells/well, respectively. The 100 µL/well of these cell suspensions were seeded in 96-well plates and incubated at 37 °C with 5% CO2 at 95% humidity for 24 h. Then, 100 µL of a sample solution was added to each well. The control was the medium mixed with 2% DMSO. The 96-well plates were incubated at 37 °C with 5% CO2 at 95% humidity for 72 h. The mixture in the well was removed and washed with 200 µL fresh medium. The 96-well plate was further incubated for 72 h, then the cell in 96-well plates was fixed with 40%TCA and washed with water five times. Finally, the fixed cell in the 96-well plate was strained with Sulforhodamine B sodium salt and the percentage of inhibition of cell growth was measured colorimetrically using the SRB assay. The herbal extract and pure compounds were considered to have potent cytotoxicity if the IC50 values were ≤ 20 and ≤ 4 µg/mL, respectively. The % inhibition of cell growth was calculated by the equation shown below, and the IC50 values were calculated using the Prism program.
(§3) %Inhibitionofcellgrowth=MeanofODcontrol-MeanofODsample÷[…]×100 where: OD control = OD of medium with 2% of DMSO and OD sample = OD of crude extract.

[2] = system: hepatocarcinoma cell line (HepG2); test: Cytotoxic activity, antiproliferative SRB assay, HepG2; format: cell-based, human; settings: for IC50: Homo sapiens, HepG2, mean ± SEM, n = 3; for IC50 / Cytotoxicity against HepG2 (in words): SRB assay; for Selective index (SI), HepG2: IC50 of non-cancerous cells (HaCaT) / IC50 of HepG2
Protocol: as §1, §2, §3
(§4) SelectivityindexSI=IC50ofnon-cancerouscellline÷IC50ofcancercellline

[3] = system: cholangiocarcinoma cell line (KKU-M156); test: Cytotoxic activity, antiproliferative SRB assay, KKU-M156; format: cell-based, human; settings: for IC50: Homo sapiens, KKU-M156, mean ± SEM, n = 3; for IC50 / Cytotoxicity against KKU-M156 (in words): SRB assay; for Selective index (SI), KKU-M156: IC50 of non-cancerous cells (HaCaT) / IC50 of KKU-M156
Protocol: as §1, §2, §3, §4

[4] = %cytotoxicity reported with the TNF-α assay; format: cell-based, murine; settings: mouse, RAW 264.7 cells, n = 3, read-out: [%cytotoxicity] at conc. 100 µg/mL (converted)
Protocol: Table 7 Anti-inflammatory on LPS-induced tumor necrosis factor-alpha production of D.cochinchinensis and PSD remedy | column: Inhibition of TNF-α production / %Inhibition and [%cytotoxicity] at conc. 100 µg/mL

TNF-α production = test: Inhibition of LPS-induced TNF-α production in RAW 264.7 (ELISA); format: cell-based, murine; settings: Mus musculus, RAW264.7, LPS-induced RAW 264.7, n = 3
Protocol: The tumor necrosis factor-alpha (TNF-α) is the principal mediator of inflammation in response to gram-negative bacteria. It is mainly produced by LPS-activated mononuclear phagocytes. The TNF- α ELISA can quantify TNF-α in the supernatant of cell culture medium. The assay was carried out using the TNF-alpha ELISA kit (Thermo Fisher® scientific, USA). The murine macrophage cell line (RAW 264.7) was cultured in DMEM medium containing 10% heat-inactivated FBS, 10^4 µg/mL P/S. Firstly, the viable cells were counted using trypan blue exclusion in a haemocytometer. The single cell suspension of murine macrophage cell line was diluted with the medium to provide an optimal density of 10^5. The cell suspension was seeded, in a 100 µL/well, in 96-well plates and incubated at 37 °C with 5% CO2 atmosphere at 95% humidity for 24 h. […] Then, the test sample was added and incubated for 24 h. The control included 2% DMSO solution mixed with the medium, in place of the test samples in the analyses. This protocol was followed according to TNF-α ELISA kit (Thermo Fisher® scientific, USA). […] The concentrations of TNF- α in the wells were measured with a microplate reader at 450 nm. The % inhibition of TNF-α production was calculated using the equation below, and the IC50 values were calculated using the Prism program. […]

Row | IC50 (TNF-α production) [µg/mL] | SMILES | IC50 [1] [µg/mL] | IC50 [2] [µg/mL] | Selective index (SI), HepG2 [2] | Cytotoxicity against HepG2 (in words) [2] | IC50 [3] [µg/mL] | Selective index (SI), KKU-M156 [3] | Cytotoxicity against KKU-M156 (in words) [3] | cytotoxicity at 100 µg/mL [4] [%] | inhibition at 100 µg/mL (TNF-α production; 100 µg/mL, read-out: %Inhibition of TNF-α production at conc. 100 µg/mL) [%]
1 | – | COc1ccc(C[C@]2(O)COc3cc(O)cc(O)c3C2=O)cc1 [Compound 3, (3S)-3,5,7-trihydroxy-3-[(4-methoxyphenyl)methyl]-2H-chromen-4-one] | 46.5 ± 0.88 (≈ 147 µM) | 25.8 ± 1.56 (≈ 81.4 µM) | 1.8 | moderate cytotoxicity | 7.12 ± 0.56 (≈ 22.5 µM) | 6.5 | moderate cytotoxicity | – | –
2 | – | COc1ccc(CCC(=O)c2ccc(O)cc2)c(OC)c1 [Compound 2] | 66 ± 0.68 (≈ 231 µM) | 20.7 ± 0.49 (≈ 72.3 µM) | 3.2 | moderate cytotoxicity | 33.2 ± 2.1 (≈ 116 µM) | 2.0 | moderate cytotoxicity | – | –
3 | – | CC[C@]1(O)C[C@H]2CN(CCc3c([nH]c4ccccc34)[C@@](C(=O)OC)(c3cc4c(cc3OC)N(C=O)[C@H]3[C@@](O)(C(=O)OC)[C@H](OC(C)=O)[C@]5(CC)C=CCN6CC[C@]43[C@@H]65)C2)C1 [Vincristine sulfate, reference compound] | 7e-06 | 0.012 ± 0.0005 | 0.00058 | – | 0.0026 ± 0.001 | – | – | – | –
4 | > 100 | CC(=O)Nc1ccc(O)cc1 [Acetaminophen] | – | – | – | – | – | – | – | 59.2 | 18.7 ± 1.93
5 | – | COc1cc(OC)c(CCC(=O)c2ccc(O)cc2)c(OC)c1 [Compound 1, 1-(4-hydroxyphenyl)-3-(2,4,6-trimethoxyphenyl)propan-1-one] | 86.1 ± 2.13 (≈ 272 µM) | 20 ± 0.46 (≈ 63.3 µM) | 4.3 | moderate cytotoxicity | 21.3 ± 3.17 (≈ 67.2 µM) | 4.1 | moderate cytotoxicity | – | –

— publication PMC9373486, “Exploring in vitro anti-proliferative and anti-inflammatory activities of Prasachandaeng remedy, and its bioactive compounds” (BMC Complementary Medicine and Therapies, 2022)
